Test results: US20060276339A1, “Methods and compositions for increasing the efficacy of biologically-active ingredients” (priority 2002, published 2006)
In brackets after ≈: the same amount, converted by molar mass.

Legend:
[1] = tested on: S. cerevisiae yeast cells (YMR4, INVSC); test: Yeast growth in suspension with ATP and drug (turbidity); format: cell-based, Saccharomyces cerevisiae; details: 100 mM ATP, 48 hours
Procedure: Cell lines: Cell lines were the same as those described above in Example 4 and 5. YMR4 MDRI is the phosphatase mutant yeast strain overexpressing AtPGP-1; YMR4 pVT011 contains vector alone; INVSC MDRI is the wild-type yeast strain overexpressing AtPGP-1; and INVSC pVT101 contains vector alone.
Selection in drug: To create drug resistant yeast strains, all four cell lines were grown up in the presence of 500 ng/ml of cycloheximide, and transferred to other cycloheximide containing plates after a period of four to six days. This transfer of cell lines and subculturing continued such that the yeast cells grew in the presence of cycloheximide for a period of at least a month. Cells cultured in media alone: To create cell lines that had not been preselected for their ability to grow in drug, yeast strains were grown on plates containing YNB (Bio101, Vista, Calif.) without uracil (-URA) to maintain the presence of the vector (which supplies URA) without any drugs added.
Growth of cells in suspension for ATP and drug selection experiments: Cells were transferred into 5 ml YNB-URA liquid media for turbidity measurements. All cell lines (both non-drug selected and drug-selected) were grown in media with the addition of either nothing, 500 ng/ml cycloheximide, 100 mM ATP, or 500 ng/ml cycloheximide and 100 mM ATP. Turbidity readings were taken after 48 hours.

[2] = tested on: SW-13; test: IC50 test (NTT), 96 well plate, vinblastine sensitive parent line; format: cell-based; details: Homo sapiens, SW13, 96 h, read-out: IC50 (sensitive at)
Procedure: (§1) In order to determine the effect of ectophosphatase inhibitors on tumor cells resistant to a chemotherapeutic agent, 2 […] tumor cell lines were tested, a vinblastine resistant line (SW-13Vb003) and its vinblastine sensitive parent line, SW-13. A standard 4 day incubation at 37° C. and 5% CO2 was used. IC50 tests (NTT) were done using standard methodology in 96 well plate format with inhibitor concentrations ranging from 0-90 μg/ml (DMEM media). […] For NGXT194, SW-13 was sensitive at 20 μg/ml, whereas the vinblastine resistant line SW-13Vb003 was sensitive at 10 μg/ml. For NGXT196, SW-13 was sensitive at 30 μg/ml, whereas the vinblastine resistant line SW-13Vb003 was sensitive at 10 μg/ml. For NGXT1915, SW-13 was sensitive at 50 μg/ml, whereas the vinblastine resistant line SW-13Vb003 was sensitive at 20 μg/ml.

[3] = tested on: SW-13Vb003; test: IC50 test (NTT), 96 well plate, vinblastine resistant line; format: cell-based; details: 96 h, read-out: IC50 (sensitive at)
Procedure: as §1

[4] = tested on: ectoapyrase activity associated with the plasma membrane of cholinergic nerve terminal of Torpedo mannorata electric organs; details: Torpedo electric organ nerve terminal plasma membrane; cited from earlier work
[5] = tested on: YMR4 yeast; test: Yeast growth in suspension, adenosine salvage pathway experiments (turbidity); format: cell-based, Saccharomyces cerevisiae; details: added to media with cycloheximide, 72 hours
Procedure: Selection in drug: To create drug resistant yeast strains, all four cell lines were grown up in the presence of 500 ng/ml of cycloheximide, and transferred to other cycloheximide containing plates after a period of four to six days. This transfer of cell lines and subculturing continued such that the yeast cells grew in the presence of cycloheximide for a period of at least a month.
Growth of cell lines in suspension for salvage pathway experiments: All cell lines were grown in liquid media either containing drug (for the drug selected lines) or not containing drug (for the non-drug selected lines). When the cultures reached a turbidity of 1.00 as measured at a wavelength of 600 in a spectrophotometer (OD600=1.00), 10 μl of each culture was then removed and placed in either media with nothing added, 3 mM potassium phosphate; 3 mM adenosine; 9 mM potassium phosphate and 3 mM adenosine (for controls); potassium phosphate and cycloheximide; adenosine and cycloheximide; adenosine, cycloheximide, and potassium phosphate. Cell cultures were further grown for 72 hours, and their turbidity was determined by OD600 readings on a spectrophotometer.

[6] = tested on: YMR4 yeast; test: Yeast drug selection growth assay, phosphatase deficient mutant; format: cell-based, Saccharomyces cerevisiae
Description: (§2) Expression of AtPGP-1 in yeast: The AtPGP-1 cDNA (Arabidopsis thaliana MDR gene, accession #X61370) was subcloned into pVT101 downstream of the ADH promoter to create the AtPGP-1/pVT101 construct. AtPGP-1/pVT101 and pVT101 were transformed into Saccharomyces cerevisiae INVSCI (genotype: MATa, his3-Δ1, leu2, trpl-289, ura3-52) and YMR4 (genotype: MATαhis3-11,15, leu2-3, 112ura3Δ5, can Res pho5, 3::ura3A1) by a PEG lithium acetate procedure (Eble, 1992) and selected on uracil dropout medium.
(§3) Yeast Growth: Yeast were grown at 30° C. under conditions of constant selection for uracil auxotrophy. YNB (Bio101, Vista, Calif.) supplemented with CSM (uracil dropout) and 2% glucose was used to grow strains having pVT101 constructs. Cycloheximide (Sigma Chemical, St. Louis, Mo.) was added to liquid media or spread on solid media to achieve a final concentration of 500 ng/ml. Nigencm (Sigma Chemical, St. Louis, Mo.) was added to liquid media or spread on solid media to achieve a final concentration of 25 μg/ml. Yeast strains used in cycloheximide selection assays were always propagated in the presence of the cycloheximide on plates and then streaked onto new plates containing drug or no drug, such that induced resistance existed in each strain at the time of the start of the assay. […] Yeast selection assays in liquid media were quantitated by turbidity as measured by absorbance at OD600.

[7] = tested on: INVSCI yeast; test: Yeast drug selection growth assay, wild-type strain; format: cell-based, Saccharomyces cerevisiae; details: cycloheximide 500 ng/ml
Description: as §2, §3

[8] = tested on: wild-type Arabidopsis thaliana plants; test: Arabidopsis germination selection assay, wild-type plants; format: in vivo; details: cycloheximide 500 ng/ml, phosphatase inhibitor 1 mM, 10-20 days
Procedure: Plant growth: Arabidopsis thaliana seeds were sown in a solid germination media containing MS salt, 2% sucrose, 0.8% agar, and vitamins (Valvekens et al., 1992). For selection assays, cycloheximide was spread on the media to achieve a final concentration of […]. Plant growth was measured by germination percentage after 6-30 days.
(§4) Plant Growth: Arabidopsis seeds were sown in a solid germination media containing MS salts (Sigma Chemical, St. Louis, Mo.), 2% sucrose, 0.8% agar, and vitamins (Valvekens et al., 1992). For selection assays, one of the following, or a combination of both, was added to media (cooled to less than 50° C. before adding) immediately prior to pouring into plates: cycloheximide at a final concentration of 500 ng/ml; α,β-methyleneadenosine 5′-diphosphate at a final concentration of 1 mM. Plant growth was measured by germination percentage after 10-20 days.
All other materials and methods were discussed above in Example 4.

[9] = tested on: AtPGP-1 overexpressing (MDR OE) Arabidopsis thaliana plants; format: in vivo; details: AtPGP-1 overexpressing plants; cycloheximide 500 ng/ml, phosphatase inhibitor 1 mM; 10-20 days
Description: Similar methods were employed to express AtPGP-1 in Arabidopsis thaliana plants with the following modifications. […] This plasmid was then transformed into A. tumefaciens as described above, which was used to infect root calli to produce transgenic plants expressing AtPGP-1.
as §4

Nc1ncnc2c1ncn2[C@@H]1O[C@H](COP(=O)(O)OP(=O)(O)OP(=O)(O)O)[C@@H](O)[C@H]1O [ATP]
yeast growth in high levels of ATP ([1]; cells not previously selected in drug): able to grow
yeast growth in high levels of ATP ([1]; cells previously grown in drug (resistant), not overexpressing AtPGP-1): not able to grow

Cc1ccc(O)c(/C=N/NC(=O)Cc2cccc3ccccc23)c1 [NGXT194]
IC50 [2]: 20 µg/mL (≈ 62.8 µM)
IC50 [3]: 10 µg/mL (≈ 31.4 µM)

O=C(Cc1cccc2ccccc12)N/N=C/c1ccc(Br)cc1 [NGXT196]
IC50 [2]: 30 µg/mL (≈ 81.7 µM)
IC50 [3]: 10 µg/mL (≈ 27.2 µM)

C/C(=N\NC(=O)c1cccc(C)c1)c1ccc2ccccc2c1 [NGXT1915]
IC50 [2]: 50 µg/mL (≈ 165 µM)
IC50 [3]: 20 µg/mL (≈ 66.1 µM)

Cc1ccc(C(=O)Nc2ccc(S(=O)(=O)O)c3cc(S(=O)(=O)O)cc(S(=O)(=O)O)c23)cc1NC(=O)c1cccc(NC(=O)Nc2cccc(C(=O)Nc3cc(C(=O)Nc4ccc(S(=O)(=O)O)c5cc(S(=O)(=O)O)cc(S(=O)(=O)O)c45)ccc3C)c2)c1 [Suramin, 8,8′[Carbonylbis[imino-3,1-phenylenecarbonylimino(4-methyl-3,1-phenylene)carbonylimino]]bis-1,3,5-naphthalenetrisulfonic acid]
inhibition of ectoapyrase activity [4]: potent non-competitive inhibitor

Nc1ncnc2c1ncn2[C@@H]1O[C@H](CO)[C@@H](O)[C@H]1O [adenosine]
effect on resistance of yeast cells to cycloheximide [5]: did not enhance resistance

C[C@@H]1C[C@@H]([C@H](O)CC2CC(=O)NC(=O)C2)C(=O)[C@@H](C)C1 [cycloheximide]
yeast growth in drug ([6]; YMR4 mutant, cycloheximide 500 ng/ml): did not grow
yeast growth in drug [7]: did grow
germination rate [8]: 2%
germination rate [9]: 50%

CO[C@@H]1C[C@@H](C[C@H]2CC[C@H](C)[C@H]([C@@H](C)C(=O)O)O2)O[C@]2(O[C@](C)([C@H]3CC[C@@](C)([C@@H]4O[C@@H]([C@H]5O[C@@](O)(CO)[C@H](C)C[C@@H]5C)C[C@@H]4C)O3)C[C@H]2C)[C@@H]1C [nigericin]
yeast growth in drug ([6]; YMR4 containing vector alone, nigericin 25 μg/ml): reduced growth

Nc1ncnc2c1ncn2[C@@H]1O[C@H](COP(=O)(O)CP(=O)(O)O)[C@@H](O)[C@H]1O [phosphatase inhibitor, α,β-methyleneadenosine 5′-diphosphate]
germination rate [8]: 90%
germination rate [9]: 83%

O=P(O)(O)O [phosphate, potassium phosphate]
effect on resistance of yeast cells to cycloheximide [5]: did not enhance resistance
